Measured values published in patent US12692253B2, “Antimicrobial compounds and methods” (Curza Global, LLC, priority 2019, dated 2026).
Like-named read-outs stand apart in the source and are kept apart here.

How the values were obtained:
[1] = molecular target: Rabbit Reticulocyte Lysate (eukaryotic protein synthesis); experiment: Rabbit reticulocyte lysate luciferase assay (inhibition of eukaryotic protein synthesis); format: biochemical; details: read-out: Rabbit reticulocyte IC50 (μM/% inhib.)
Procedure, shortened: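 In vitro translation of luciferase control RNA in nuclease-treated rabbit reticulocyte lysate with amino acid mixture, compounds in 2-fold serial dilution, 90 minutes at 30° C. Luminescence read after luciferase reagent; % inhibition relative to water no-inhibitor controls, with no-RNA background wells.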

S. aureus (Sa) = experiment: Broth microdilution minimum inhibitory concentration (MIC), CLSI; format: cell-based; details: for MIC: Staphylococcus aureus, read-out: Sa + bicarb MIC
Procedure, shortened: (§1)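 Two-fold serial dilutions in CAMHB, optionally with sodium bicarbonate (6.25 or 25 mM final) or heat-inactivated human serum (0-50%), 8 concentrations, triplicate. Inoculum 5×10^4 CFU/well from log-phase cultures grown at 35±2 °C to 0.5 McFarland.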

P. aeruginosa (Pa) = experiment: as above; format: cell-based; details: for MIC: Pseudomonas aeruginosa, read-out: Pa MIC + bicarb
Procedure, shortened: as §1

A. baumannn (Ab) = experiment: as above; format: cell-based; details: for MIC: read-out: Ab + bicarb MIC
Procedure, shortened: as §1

E. coli (Ec) = experiment: as above; format: cell-based; details: for MIC: Escherichia coli, read-out: E. coli + bicarb MIC
Procedure, shortened: as §1

E. faecalis (Ef) = experiment: as above; format: cell-based; details: for MIC: Enterococcus faecalis, read-out: Ef + bicarb MIC
Procedure, shortened: as §1

[2] = tested on: E. coli S30 extract (bacterial protein synthesis); experiment: E. coli S30 extract coupled transcription-translation luciferase assay (inhibition of bacterial protein synthesis); format: biochemical; details: read-out: S30 IC50 (μM/% inhib.)
Procedure, shortened: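 Coupled transcription-translation in E. coli S30 circular-DNA extract expressing luciferase from pBESTluc, with 8-point 2-fold compound dilutions; 1 hour at 37 °C, stopped at 4 °C. Luminescence read; % inhibition versus no-inhibitor wells, no-DNA wells as background.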

[3] = growth medium with sodium bicarbonate
[4] = A. baumannn, growth medium with sodium bicarbonate
[5] = class by IC50 or % inhibition @ 1 μM
[6] = growth medium supplemented with sodium bicarbonate

Row | Structure (SMILES) | IC50 ([1]; % inhibition @ 1 μM) [µM] | Sa + bicarb MIC (S. aureus (Sa); [3]) | Pa MIC + bicarb (P. aeruginosa (Pa); [3]) | Ab + bicarb MIC (A. baumannn (Ab); [4]) | E. coli + bicarb MIC (E. coli (Ec); [3]) | Ef + bicarb MIC (E. faecalis (Ef); [3]) | IC50 ([2]; % inhibition @ 1 μM) [µM] | IC50 [1, 5] [µM] | MIC (S. aureus (Sa); [6]) [µg/mL] | MIC (P. aeruginosa (Pa); [6]) [µg/mL] | MIC (A. baumannn (Ab); Acinetobacter baumannii) [µg/mL] | MIC (E. coli (Ec); [6]) [µg/mL] | MIC (E. faecalis (Ef); [6]) [µg/mL] | IC50 [2, 5] [µM] | MIC (S. aureus (Sa); [3]) [µg/mL] | MIC (P. aeruginosa (Pa); [3]) [µg/mL] | MIC (A. baumannn (Ab); [4]) [µg/mL] | MIC (E. coli (Ec); [3]) [µg/mL] | MIC (E. faecalis (Ef); [3]) [µg/mL]
1 | CC(Cc1ccc(-n2ccc(NC(=O)N3CCN(C(=O)C(C)(C)N)CC3)nc2=O)cc1)N1CCC2(CC(N)C2)C1 (stereo not shown) [Compound 238] | ≥ 1 | ++ (An MIC value (μg/mL) that is 8 μg/mL or greater and less than 32 μg/mL) | + (An MIC (μg/mL) value that is 32 μg/mL or greater) | + (An MIC (μg/mL) value that is 32 μg/mL or greater) | +++ (An MIC value (μg/mL) that is less than 8 μg/mL) | + (An MIC (μg/mL) value that is 32 μg/mL or greater) | 0.5 to 1 |  |  |  |  |  |  |  |  |  |  |  | 
2 | N[C@@H]1[C@H]2CN(Cc3ccc(-n4ccc(NC(=O)N5CCC6(CCNC6)C5)nc4=O)cc3)C[C@@H]12 (stereo partly shown) [Compound 63] |  |  |  |  |  |  |  | ≥ 1 | > 32 | > 32 | > 32 | > 32 | > 32 | ≥ 1 |  |  |  |  | 
3 | CC(Cc1ccc(-n2ccc(NC(=O)N3CCN(C(=O)[C@H]4C[C@H](N)C4)CC3)nc2=O)cc1)N1C[C@@H]2[C@@H](CN)[C@@H]2C1 (stereo partly shown) [Compound 234] | ≥ 1 |  |  |  |  |  | ≥ 1 |  |  |  |  |  |  |  | < 8 | > 32 | > 32 | < 8 | > 32
4 | CC(Cc1ccc(-n2ccc(NC(=O)N3CCN(C(=O)C(C)(C)N)CC3)nc2=O)cc1)N1CC2CCC(N)CC2C1 (stereo not shown) [Compound 243] | ≥ 1 | ++ (An MIC value (μg/mL) that is 8 μg/mL or greater and less than 32 μg/mL) | + (An MIC (μg/mL) value that is 32 μg/mL or greater) | + (An MIC (μg/mL) value that is 32 μg/mL or greater) | +++ (An MIC value (μg/mL) that is less than 8 μg/mL) | + (An MIC (μg/mL) value that is 32 μg/mL or greater) | 0.5 to 1 |  |  |  |  |  |  |  |  |  |  |  | 
5 | CC(N)[C@H]1[C@@H]2CN(CCc3ccc(-n4ccc(NC(=O)N5CCN(C(=O)C(C)(C)N)CC5)nc4=O)cc3)C[C@@H]21 (stereo partly shown) [Compound 134] |  |  |  |  |  |  |  | ≥ 1 | < 8 | 8 to 32 | 8 to 32 | < 8 | < 8 | < 0.5 |  |  |  |  | 
6 | CC(C)(N)CC1CCN(C(=O)Nc2ccn(-c3ccc(CN4C[C@@H]5[C@@H](N)[C@@H]5C4)cc3)c(=O)n2)CC1 [Compound 48] |  |  |  |  |  |  |  | ≥ 1 | < 8 | > 32 | > 32 | < 8 | 8 to 32 | 0.5 to 1 |  |  |  |  | 
7 | CC(Cc1ccc(-n2ccc(NC(=O)N3CCN(C(=O)C(C)(C)N)CC3)nc2=O)cc1)N(C)C12CC(N)(C1)C2 (stereo not shown) [Compound 199] | ≥ 1 |  |  |  |  |  | ≥ 1 |  |  |  |  |  |  |  | 8 to 32 | > 32 | > 32 | 8 to 32 | > 32
8 | CC(C)(N)C(=O)N1CCN(C(=O)Nc2ccn(-c3ccc(CNC45CCC(N)(CC4)CC5)cc3)c(=O)n2)CC1 [Compound 167] | ≥ 1 |  |  |  |  |  | < 0.5 |  |  |  |  |  |  |  | < 8 | 8 to 32 | 8 to 32 | < 8 | < 8
9 | COc1cc(-n2ccc(NC(=O)N3CCN(C(=O)C(C)(C)N)CC3)nc2=O)ccc1CCN1C[C@@H]2[C@@H](CN)[C@@H]2C1 [Compound 132] |  |  |  |  |  |  |  | ≥ 1 | 8 to 32 | 8 to 32 | > 32 | < 8 | 8 to 32 | < 0.5 |  |  |  |  | 
10 | CC(C)(N)C(=O)N1CCN(C(=O)Nc2ccn(-c3ccc(CNC[C@@H]4[C@H]5CNC[C@@H]45)cc3)c(=O)n2)CC1 [Compound 190] | ≥ 1 |  |  |  |  |  | < 0.5 |  |  |  |  |  |  |  | < 8 | > 32 | > 32 | < 8 | 8 to 32
11 | NCCC1CCN(C(=O)Nc2ccn(-c3ccc(CN4C[C@@H]5[C@@H](N)[C@@H]5C4)cc3)c(=O)n2)CC1 [Compound 250] | ≥ 1 |  |  |  |  |  | ≥ 1 |  |  |  |  |  |  |  | > 32 | > 32 | > 32 | > 32 | > 32
12 | NCC1CC2(CCN(C(=O)Nc3ccn(-c4ccc(CN5C[C@@H]6[C@@H](N)[C@@H]6C5)cc4)c(=O)n3)CC2)C1 [Compound 252] | ≥ 1 |  |  |  |  |  | 0.5 to 1 |  |  |  |  |  |  |  | < 8 | > 32 | > 32 | < 8 | > 32
13 | CCC(N)(CC)C(=O)N1CCN(C(=O)Nc2ccn(-c3ccc(CN4C[C@@H]5[C@@H](N)[C@@H]5C4)cc3)c(=O)n2)CC1 [Compound 224] | ≥ 1 |  |  |  |  |  | < 0.5 |  |  |  |  |  |  |  | < 8 | > 32 | > 32 | < 8 | < 8
14 | CC(C)C(Cc1ccc(-n2ccc(NC(=O)N3CCN(C(=O)C(C)(C)N)CC3)nc2=O)cc1)N1C[C@@H]2[C@@H](CN)[C@@H]2C1 (stereo partly shown) [Compound 155] |  |  |  |  |  |  |  | ≥ 1 | < 8 | < 8 | < 8 | < 8 | < 8 | < 0.5 |  |  |  |  | 
15 | CC(CN1C[C@@H]2[C@@H](CN)[C@@H]2C1)Oc1ccc(-n2ccc(NC(=O)N3CCN(C(=O)C(C)(C)N)CC3)nc2=O)cc1 (stereo partly shown) [Compound 186] | ≥ 1 |  |  |  |  |  | < 0.5 |  |  |  |  |  |  |  | < 8 | > 32 | 8 to 32 | < 8 | < 8
16 | CC(Cc1ccc(-n2ccc(NC(=O)N3CCN(C(=O)[C@@H]4CCCN4)CC3)nc2=O)cc1)N1C[C@@H]2[C@@H](CN)[C@@H]2C1 (stereo partly shown) [Compound 228] | ≥ 1 |  |  |  |  |  | ≥ 1 |  |  |  |  |  |  |  | < 8 | > 32 | > 32 | < 8 | 8 to 32
17 | CC(C)(N)C(=O)N1CCN(C(=O)Nc2ccn(-c3ccc(CN4C[C@@H]5C([C@H](N)CO)[C@@H]5C4)cc3)c(=O)n2)CC1 (stereo partly shown) [Compound 207] | ≥ 1 |  |  |  |  |  | < 0.5 |  |  |  |  |  |  |  | < 8 | > 32 | > 32 | < 8 | 8 to 32
18 | NC[C@@H]1[C@H]2CN(CCc3ccc(-n4ccc(NC(=O)N5CCC6(CC5)CC(N)C6)nc4=O)cc3)C[C@@H]12 [Compound 146] |  |  |  |  |  |  |  | ≥ 1 | < 8 | 8 to 32 | 8 to 32 | < 8 | < 8 | ≥ 1 |  |  |  |  | 
19 | CN(Cc1ccc(-n2ccc(NC(=O)N3CCN(C(=O)C(C)(C)N)CC3)nc2=O)cc1)C12CC(N)(C1)C2 [Compound 169] | ≥ 1 |  |  |  |  |  | ≥ 1 |  |  |  |  |  |  |  | > 32 | > 32 | > 32 | 8 to 32 | > 32
20 | CC(C)[C@@H](N)CC(=O)N1CCN(C(=O)Nc2ccn(-c3ccc(CC(C)N4C[C@@H]5[C@@H](CN)[C@@H]5C4)cc3)c(=O)n2)CC1 (stereo partly shown) [Compound 235] | ≥ 1 |  |  |  |  |  | ≥ 1 |  |  |  |  |  |  |  | < 8 | > 32 | > 32 | < 8 | > 32
21 | NCC[C@H](N)C(=O)N1CCN(C(=O)Nc2ccn(-c3ccc(CN4C[C@@H]5[C@@H](N)[C@@H]5C4)cc3)c(=O)n2)CC1 [Compound 41] |  |  |  |  |  |  |  | ≥ 1 | > 32 | > 32 | > 32 | > 32 | > 32 | ≥ 1 |  |  |  |  | 
22 | NCCC1CN(C(=O)Nc2ccn(-c3ccc(CN4C[C@@H]5[C@@H](N)[C@@H]5C4)cc3)c(=O)n2)C1 [Compound 255] | ≥ 1 |  |  |  |  |  | 0.5 to 1 |  |  |  |  |  |  |  | > 32 | > 32 | > 32 | 8 to 32 | > 32
23 | C[C@H](Cc1ccc(-n2ccc(NC(=O)N3CCN(C(=O)C(C)(C)N)CC3)nc2=O)cc1)N1C[C@@H]2[C@@H](CN)[C@@H]2C1 [Compound 140] |  |  |  |  |  |  |  | ≥ 1 | < 8 | 8 to 32 | 8 to 32 | < 8 | < 8 | < 0.5 |  |  |  |  | 
24 | NC[C@@H]1[C@H]2CN(CCc3ccc(-n4ccc(NC(=O)N5CC6(CCC6N)C5)nc4=O)cc3)C[C@@H]12 (stereo partly shown) [Compound 148] |  |  |  |  |  |  |  | ≥ 1 | > 32 | > 32 | > 32 | > 32 | > 32 | ≥ 1 |  |  |  |  | 
25 | CCC(Cc1ccc(-n2ccc(NC(=O)N3CCN(C(=O)C(C)(C)N)CC3)nc2=O)cc1C(F)(F)F)N1C[C@@H]2[C@@H](CN)[C@@H]2C1 (stereo partly shown) [Compound 211] | ≥ 1 |  |  |  |  |  | 0.5 to 1 |  |  |  |  |  |  |  | < 8 | > 32 | 8 to 32 | < 8 | < 8
